Reference: article PMC4556714, “Drug Development in Conformational Diseases: A Novel Family of Chemical Chaperones that Bind and Stabilise Several Polymorphic Amyloid Structures” (PLoS ONE, 2015)

Assays:
[1] = target: T1, Bovine serum albumin (BSA, fraction V) (Bos taurus, UniProt P02769); assay: ThT fluorescence, inhibition of BSA amyloid aggregation; assay type: biochemical
T1 construct: gene ALB; mature native serum albumin, 585 residues, fraction V from Roche; heat/acid-induced amyloid aggregation

[2] = target: T1, Bovine serum albumin (BSA, fraction V); assay: ThT fluorescence, BSA fibrillation at […]; assay type: biochemical; settings: BSA 100 μmol/L, glycine buffer pH 3, NaCl 100 mM, 65°C

T1 sequence (P02769 25-607): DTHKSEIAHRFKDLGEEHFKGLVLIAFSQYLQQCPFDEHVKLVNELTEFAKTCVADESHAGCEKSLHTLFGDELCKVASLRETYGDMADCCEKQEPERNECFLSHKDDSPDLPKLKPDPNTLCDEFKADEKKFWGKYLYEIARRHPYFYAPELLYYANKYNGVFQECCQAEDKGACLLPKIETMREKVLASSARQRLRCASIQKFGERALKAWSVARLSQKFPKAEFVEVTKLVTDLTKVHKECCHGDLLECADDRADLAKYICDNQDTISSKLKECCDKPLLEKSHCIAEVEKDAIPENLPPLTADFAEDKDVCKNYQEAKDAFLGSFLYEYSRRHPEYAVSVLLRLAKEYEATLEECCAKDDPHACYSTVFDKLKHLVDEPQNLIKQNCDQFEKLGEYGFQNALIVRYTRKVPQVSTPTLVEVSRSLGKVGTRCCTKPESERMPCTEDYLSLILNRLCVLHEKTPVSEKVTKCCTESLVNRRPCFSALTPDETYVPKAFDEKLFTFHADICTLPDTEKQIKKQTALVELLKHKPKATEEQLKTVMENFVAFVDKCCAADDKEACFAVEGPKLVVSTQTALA

| Compound | IC50 [1] [µM] | other results |
| --- | --- | --- |
| NCCNC(=O)CCC(=O)Nc1cccc2ccccc12 [A, N-(2-aminoethyl)-N'-1-naphthylsuccinamide] | 6.34 |  |
| CSC(=S)NCCNC(=O)CCC(=O)Nc1cccc2ccccc12 [B, methyl (2-{[4-(1-naphthylamino)-4-oxobutanoyl]amino}ethyl) dithiocarbamate] |  | % ThT fluorescence change at 100 μmol/L [2]: chaperones A, C, D, B and E had a strong inhibitory effect on BSA fibrillation |
| O=C(O)CCNC(=O)CCC(=O)Nc1cccc2ccccc12 [D, N-[4-(1-naphthylamino)-4-oxobutanoyl]-β-alanine] | 6.37 |  |
| O=C(O)CCCCCNC(=O)CCC(=O)Nc1cccc2ccccc12 [E, 6-{[4-(1-naphthylamino)-4-oxobutanoyl]amino} hexanoic acid] | 5.38 |  |
| O=C(CCC(=O)Nc1cccc2ccccc12)NCCNC(=O)CCC(=O)Nc1cccc2ccccc12 [F, N3,N3'-ethane-1,2-dyilbis(N1-1-naphthylsuccinamide)] | 40 |  |
| NCCCCNC(=O)CCC(=O)Nc1cccc2ccccc12 [G, N-(4-aminobutyl)-N'-1-naphthylsuccinamide] |  | % ThT fluorescence change at 100 μmol/L ([2]; aggregation enhancer): At the same concentrations, the chaperones F and G increased BSA fibrillation |
